Values quoted from earlier work as cited in patent US8047146B2, “Subsurface soil injection apparatus and method” (priority 2001, dated 2011).
Converted amounts (≈) assume the structure as drawn.

How the values were obtained:
[1] = rapidly photodegrades in light

CI [Iodomethane, iodomethane]
solubility in water: 14.2 mg/mL (≈ 100 mM) | lifetime in the atmosphere [1]: 1.5 to 4 days
